Experimental findings from patent US10441588B2, “Methods and compositions for treating bacterial infection” (Curators of the University of Missouri, priority 2012, dated 2019) are described below.

Counter-ions that a name gives are not always drawn. Like-named read-outs stand apart in the source and are kept apart here.

The subject of one assay is S. aureus biofilm. The assay is described as follows: S. aureus biofilm inhibition, optical density, test/control. Format: cell-based, Staphylococcus aureus. The following applies: Staphylococcus aureus, growth of biofilm test/control by optical density.
A further assay relates to S. aureus. The assay can be described thus: S. aureus growth inhibition, optical density, test/control. Format: cell-based, Staphylococcus aureus. The settings on record: Staphylococcus aureus, growth of bacteria test/control by optical density.
The mark [1] stands for this setting: 5 μM, read-out: S. aureus Biofilm Inhibition 5 μM vs. (−) Control.
Setting [2] is: 50 μM, read-out: S. aureus Biofilm Inhibition 50 μM vs. (−) Control.

Take `COc1ccc2c(c1)CC1(CCN(C(=O)OC(C)(C)C)CC1)c1c-2nc(SCC#N)n(C)c1=O` [CCG-211811, tert-butyl 2-((cyanomethyl)thio)-8-methoxy-3-methyl-4-oxo-4,6-dihydro-3H-spiro[benzo[h]quinazoline-5,4′-piperidine]-1′-carboxylate]: the activity at 5 µM with S. aureus biofilm (setting [1]) worked out at 67.8%. For the same molecule, in the assay on S. aureus biofilm (setting [2]), the activity at 50 µM was found to be 70.2%.
On to `C=CCn1c(SCC(F)(F)F)nc2c(c1=O)C(C)(C)Cc1ccc(OC)cc1-2` [CCG-206352], for which, in the assay with S. aureus biofilm, the activity at 10 µM was found to be 60.4% and the activity at 100 µM came to 47%. The activity at 100 µM with S. aureus stood at 101%.
As for `COCCSc1nc2c(c(=O)n1CC1OCCO1)C(C)(C)Cc1ccccc1-2` [CCG-204029, 3-((1,3-Dioxolan-2-yl)methyl)-2-((2-methoxyethyl)thio)-5,5-dimethyl-5,6-dihydrobenzo[h]-quinazolin-4(3H)-one], the activity at 100 µM in the assay on S. aureus biofilm turned out to be 63.6%; with S. aureus, 94.3%.
The like results for `CCSc1nc(OCC(F)(F)F)c2c(n1)-c1cc(OC)ccc1CC2(C)C` [CCG-206356] were, in that order, 59.1% and 110%.
On to `C=CCn1c(SCCOC)nc2c(c1=O)C1(CCN(C(C)=O)CC1)Cc1ccccc1-2` [CCG-206230, 1′-Acetyl-3-allyl-2-((2-methoxyethyl)thio)-3H-spiro[benzo[h]quinazoline-5,4′-piperidin]-4(6H)-one], for which the activity at 10 µM in the assay on S. aureus biofilm came to 85.5%. For the same molecule, in the assay on S. aureus, the activity at 100 µM amounted to 97%.
Regarding `C=CCOc1nc(SCC)nc2c1C(C)(C)Cc1ccc(OC)cc1-2` [CCG-206358], in the assay on S. aureus biofilm, the activity at 10 µM came to 55.7% and the activity at 100 µM came out at 70%.
Regarding `COCCSc1nc2c(c(=O)n1Cc1ccc(OC)cc1)C(C)(C)Cc1ccccc1-2` [CCG-204036, 3-(4-Methoxybenzyl)-2-((2-methoxyethyl)thio)-5,5-dimethyl-5,6-dihydrobenzo[h]quin-azolin-4(3H)-one], the activity at 100 µM in the assay with S. aureus biofilm worked out at 76.5%; in the assay with S. aureus, 112%.
For the molecule `C=CCn1c(SCC)nc2c(c1=O)C(C)(C)Cc1c(OC)cccc1-2` [CCG-203629], the activity at 100 µM is 35.1% with S. aureus biofilm and 66.7% in the assay on S. aureus.
In the same order, the values of `C=CCn1c(SCc2ccccn2)nc2c(c1=O)C(C)(C)Cc1ccccc1-2` [CCG-203039] are 71% and 95.9%.
Turning to `CCSc1nc(OC)c2c(n1)-c1cc(OC)ccc1CC2(C)C` [CCG-211793, 2-(ethylthio)-4,9-dimethoxy-5,5-dimethyl-5,6-dihydrobenzo[h]quinazoline], the activity at 5 µM with S. aureus biofilm (setting [1]) is 122%. In addition, the activity at 50 µM in the assay on S. aureus biofilm (setting [2]) stood at 72.2%.
For the molecule `C#CCSc1nc2c(c(=O)n1CC=C)C(C)(C)Cc1cc(C(=O)c3ccccc3)ccc1-2` [CCG-204080, 3-allyl-8-benzoyl-5,5-dimethyl-2-(prop-2-yn-1-ylthio)-5,6-dihydrobenzo[h]quinazolin-4(3H)-one], the activity at 100 µM was determined as 73.4% in the assay on S. aureus biofilm and 110% in the assay with S. aureus.
In the same order, the values of `COCCSc1nc2c(c(=O)n1CCOc1ccc(OC)cc1)C(C)(C)Cc1ccccc1-2` [CCG-204060] are 79% and 91.2%.
Consider `COc1ccc2c(c1)-c1nc(SCC#N)n(CC#N)c(=O)c1C(C)(C)C2` [CCG-212012, 2-((3-(cyanomethyl)-9-methoxy-5,5-dimethyl-4-oxo-3,4,5,6-tetrahydrobenzo[h]quinazolin-2-yl)thio)acetonitrile], for which, in the assay on S. aureus biofilm (setting [1]), the activity at 5 µM turned out to be 55%. Further, the activity at 50 µM with S. aureus biofilm (setting [2]) was found to be 27%.
Consider `C=CCn1c(SCC)nc2c(c1=O)C(C)(C)Cc1cc(OCC(=O)O)ccc1-2` [CCG-205434], for which, in the assay on S. aureus biofilm, the activity at 100 µM was 32.5%.
On to `C=CCn1c(SCCOC)nc2c(c1=O)C1(CCN(C(=O)NCC(=O)OCC)CC1)Cc1cc(OC)ccc1-2` [CCG-211972, ethyl (3-allyl-8-methoxy-2-((2-methoxyethyl)thio)-4-oxo-4,6-dihydro-3H-spiro[benzo[h]quinazoline-5,4′-piperidine]-1′-carbonyl)glycinate], for which the activity at 5 µM with S. aureus biofilm (setting [1]) came out at 125%. Besides, the activity at 50 µM in the assay with S. aureus biofilm (setting [2]) came out at 68%.
The like results for `C=CCn1c(SCCOC)nc2c(c1=O)C1(CCN(C)CC1)Cc1cc(OC)ccc1-2` [CCG-208981, 3-allyl-8-methoxy-2-((2-methoxyethyl)thio)-1′-methyl-3H-spiro[benzo[h]quinazoline-5,4′-piperidin]-4(6H)-one] were, in that order, 88.5% and 70.6%.
In the same order, the values of `C=CCOc1nc(SCC#N)nc2c1C(C)(C)Cc1ccc(OC)cc1-2` [CCG-212010, 2-((4-(allyloxy)-9-methoxy-5,5-dimethyl-5,6-dihydrobenzo[h]quinazolin-2-yl)thio)acetonitrile] are 55% and 35%.
Turning to `C=CCn1c(SCCOC)nc2c(c1=O)C1(CCNC1)Cc1cc(OC)ccc1-2` (stereo not drawn) [CCG-208865, 3-allyl-8-methoxy-2-((2-methoxyethyl)thio)-3H-spiro[benzo[h]quinazoline-5,3′-pyrrolidine]-4(6H)-one hydrochloride], in the assay with S. aureus biofilm (read-out: S. aureus Biofilm Inhibition 5 μM vs. (−) Control, 5 μM), the activity at 5 µM turned out to be 80.3%. The activity at 50 µM with S. aureus biofilm (read-out: S. aureus Biofilm Inhibition 50 μM vs. (−) Control, 50 μM) stood at 65.2%.
Regarding `COc1ccc2c(c1)-c1nc(SCC#N)nc(OCC#N)c1C(C)(C)C2` [CCG-212011, 2-((4-(cyanomethoxy)-9-methoxy-5,5-dimethyl-5,6-dihydrobenzo[h]quinazolin-2-yl)thio)acetonitrile], the activity at 5 µM with S. aureus biofilm (setting [1]) is 48%. The activity at 50 µM in the assay with S. aureus biofilm (setting [2]) came to 29%.
On to `C=CCn1c(SCC)nc2c(c1=O)C(C)(C)Cc1ccc(OC)cc1-2` [CCG-203625], for which the activity at 10 µM in the assay on S. aureus biofilm is 51.3%.
Regarding `COc1ccc2c(c1)CC1(CCN(C(=O)OC(C)(C)C)CC1)c1c(OC)nc(SCC#N)nc1-2` [CCG-211810, tert-butyl 2-((cyanomethyl)thio)-4,8-dimethoxy-6H-spiro[benzo[h]quinazoline-5,4′-piperidine]-1′-carboxylate], the activity at 5 µM in the assay on S. aureus biofilm (setting [1]) came to 68.2%. Besides, the activity at 50 µM with S. aureus biofilm (setting [2]) amounted to 75%.
Regarding `C=CCn1c(SCCOC)nc2c(c1=O)C1(CCN(C(=O)OCC)CC1)Cc1ccccc1-2` [CCG-206233, Ethyl 3-allyl-2-((2-methoxyethyl)thio)-4-oxo-4,6-dihydro-3H-spiro[benzo[h]quinazoline-5,4′-piperidine]-1′-carboxylate], the activity at 50 µM with S. aureus biofilm (setting [2]) was 59.4%.
With `COc1ccc2c(c1)CC1(CCN(C(=O)OC(C)(C)C)CC1)c1c(OCC#N)nc(SCC#N)nc1-2` [CCG-211812, tert-butyl 4-(cyanomethoxy)-2-((cyanomethyl)thio)-8-methoxy-6H-spiro[benzo[h]quinazoline-5,4′-piperidine]-1′-carboxylate], the activity at 5 µM in the assay on S. aureus biofilm (setting [1]) is 75.2%. In the assay with S. aureus biofilm (setting [2]), the activity at 50 µM came out at 75%.
The like results for `C=CCn1c(SCCOC)nc2c(c1=O)C1(CCN(C(=O)OC(C)(C)C)C1)Cc1cc(OC)ccc1-2` (stereo not drawn) [CCG-208864, tert-butyl 3-allyl-8-methoxy-2-((2-methoxyethyl)thio)-4-oxo-4,6-dihydro-3H-spiro[benzo[h]quinazoline-5,3′-pyrrolidine]-1′-carboxylate] were, in that order, 49.5% and 49.1%.
In the same order, the values of `C=CCOc1nc(SCCOC)nc2c1C1(CCN(C(=O)CCCC)CC1)Cc1cc(OC)ccc1-2` [CCG-208863, 1-(4-(allyloxy)-8-methoxy-2-((2-methoxyethyl)thio)-6H-spiro[benzo[h]quinazoline-5,4′-piperidin]-1′-yl)pentan-1-one] are 72.1% and 68.6%.
